# Like-named read-outs stand apart in the source and are kept apart here.
# Legend:
# [1] = target: T1, human GIP receptor (Homo sapiens, UniProt P48546); test: biochemical; type: binding
# T1 construct: expressed in transfected cells; host or cells: HEK293 (HEK-GIPR), membranes
# T1 sequence (P48546 22-466): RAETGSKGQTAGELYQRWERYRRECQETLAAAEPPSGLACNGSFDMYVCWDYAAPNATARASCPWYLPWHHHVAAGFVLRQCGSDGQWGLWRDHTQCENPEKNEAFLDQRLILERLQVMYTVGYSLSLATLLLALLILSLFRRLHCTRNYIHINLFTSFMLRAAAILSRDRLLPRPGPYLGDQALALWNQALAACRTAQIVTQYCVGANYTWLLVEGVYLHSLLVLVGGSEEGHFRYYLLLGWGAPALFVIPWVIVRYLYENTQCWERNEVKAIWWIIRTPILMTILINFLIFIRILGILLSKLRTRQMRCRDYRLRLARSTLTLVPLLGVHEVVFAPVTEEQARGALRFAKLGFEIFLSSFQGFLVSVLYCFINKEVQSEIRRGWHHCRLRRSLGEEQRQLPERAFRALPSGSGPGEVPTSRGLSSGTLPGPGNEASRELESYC
# [2] = type: in vivo, NIH/Swiss mice; settings: 80 nmol/kg, AUC240
# Method: (§1) In FIG. 3A, bars represent mean±sd, n=6-10. […] Gavage (1.5 g/kg) was given at t=0, Sample was taken at t=30 min. […] In FIG. 3B, points represent mean±sem, n=8-15.
# Points represent mean±sem.
# [3] = type: in vivo, NIH/Swiss mice; settings: 30 nmol/kg
# Method: as §1
# Peptide was injected IP at t=−5 minutes into 4-hour fasted NIH/Swiss female mice. […] In FIG. 17 points represent mean+/−sem. […] Samples were taken at t=60, t=120 and t=180.
# [4] = IVGTT duration of action assay (single SC injection before glucose); type: in vivo, rat; settings: compared with 0601GIP3794 (794), dosed at −120 min
# Method: To determine a duration of action using the IVGTT assay, the sample was injected SC as a single injection at one time point indicated (e.g., t=−240, −120, −60 or −30) prior to administration of glucose. IV glucose was given at t=0.
# [5] = read-out: GIP RBA (% Inh 10 nM)
# [6] = read-out: (% Inh 10 nm, GIP-LF Assay)
SMILES,"inhibition at 0.01 µM [1, 5] [%]",Basal Glucose Lowering at Peptide Conc. of 80 nmol/kg [2],OGTT/GL (%) [3],Duration In The Rat IVGTT Assay [4],"inhibition at 0.01 µM [1, 6] [%]"
CC[C@H](C)[C@H](NC(=O)[C@H](CO)NC(=O)[C@H](Cc1ccc(O)cc1)NC(=O)[C@H](CC(=O)O)NC(=O)[C@H](CO)NC(=O)[C@@H](NC(=O)[C@H](Cc1ccccc1)NC(=O)[C@@H](NC(=O)CNC(=O)[C@H](CCC(=O)O)NC(=O)[C@@H](C)NC(=O)[C@@H](N)Cc1ccc(O)cc1)[C@@H](C)O)[C@@H](C)CC)C(=O)N[C@@H](C)C(=O)N[C@@H](CC(C)C)C(=O)N[C@@H](CC(=O)O)C(=O)N[C@@H](CCCCN)C(=O)N[C@H](C(=O)N[C@@H](CCCNC(=N)N)C(=O)N[C@@H](CCC(N)=O)C(=O)N[C@@H](CCC(N)=O)C(=O)N[C@@H](CCC(=O)O)C(=O)N[C@@H](Cc1ccccc1)C(=O)N[C@H](C(=O)N[C@@H](CC(N)=O)C(=O)N[C@@H](Cc1c[nH]c2ccccc12)C(=O)N[C@@H](CC(C)C)C(=O)N[C@@H](CC(C)C)C(=O)N[C@@H](C)C(=O)N[C@@H](CCC(N)=O)C(=O)N[C@@H](CCCCN)C(=O)N1CCC[C@H]1C(=O)N[C@@H](CCCCN)C(=O)N[C@@H](CCCCN)C(=O)N[C@H](C(=O)N[C@@H](CCCNC(=N)N)C(=O)N[C@@H](Cc1ccc(O)cc1)C(=O)N[C@@H](CO)C(N)=O)[C@@H](C)CC)C(C)C)[C@@H](C)CC [0601GIP4539],98.7,"−5%, AUC240","−12, 30%",,
CC[C@H](C)[C@H](NC(=O)[C@H](CO)NC(=O)[C@H](Cc1ccc(O)cc1)NC(=O)[C@H](CC(=O)O)NC(=O)[C@H](CO)NC(=O)[C@@H](NC(=O)[C@H](Cc1ccccc1)NC(=O)[C@@H](NC(=O)CNC(=O)[C@H](CCC(=O)O)NC(=O)[C@@H](C)NC(=O)[C@@H](N)Cc1ccc(O)cc1)[C@@H](C)O)[C@@H](C)CC)C(=O)N[C@@H](C)C(=O)N[C@@H](CCSC)C(=O)N[C@@H](CC(=O)O)C(=O)N[C@@H](CCCCN)C(=O)N[C@H](C(=O)N[C@@H](Cc1c[nH]cn1)C(=O)N[C@@H](CCC(N)=O)C(=O)N[C@@H](CCC(N)=O)C(=O)N[C@@H](CC(=O)O)C(=O)N[C@@H](Cc1ccccc1)C(=O)N[C@H](C(=O)N[C@@H](CC(N)=O)C(=O)N[C@@H](Cc1c[nH]c2ccccc12)C(=O)N[C@@H](CC(C)C)C(=O)N[C@@H](CC(C)C)C(=O)N[C@@H](C)C(=O)N[C@@H](CCC(N)=O)C(=O)N[C@@H](CCCCN)C(=O)NCCC(=O)NCCC(=O)N1CCC[C@H]1C(=O)N[C@@H](CCCCN)C(=O)N[C@@H](CCCCN)C(=O)N[C@H](C(=O)N[C@@H](CCCNC(=N)N)C(=O)N[C@@H](Cc1ccc(O)cc1)C(=O)N[C@@H](CO)C(N)=O)[C@@H](C)CC)C(C)C)[C@@H](C)CC [0601GIP4648],85.1,"−8%, AUC240","−20, 30%",,
CC[C@H](C)[C@H](NC(=O)[C@H](CCCCN)NC(=O)[C@H](CC(=O)O)NC(=O)[C@H](CC(C)C)NC(=O)[C@H](C)NC(=O)[C@@H](NC(=O)[C@H](CO)NC(=O)[C@H](Cc1ccc(O)cc1)NC(=O)[C@H](CC(=O)O)NC(=O)[C@H](CO)NC(=O)[C@@H](NC(=O)[C@H](Cc1ccccc1)NC(=O)[C@@H](NC(=O)CNC(=O)[C@H](CCC(=O)O)NC(=O)[C@@H](C)NC(=O)[C@H](Cc1ccc(O)cc1)NC(=O)[C@@H](N)CC(C)C)[C@@H](C)O)[C@@H](C)CC)[C@@H](C)CC)C(=O)N[C@@H](C)C(=O)N[C@@H](CCC(N)=O)C(=O)N[C@@H](CCC(N)=O)C(=O)N[C@@H](CCC(=O)O)C(=O)N[C@@H](Cc1ccccc1)C(=O)N[C@H](C(=O)N[C@@H](CC(N)=O)C(=O)N[C@@H](Cc1c[nH]c2ccccc12)C(=O)N[C@@H](CC(C)C)C(=O)N[C@@H](CC(C)C)C(=O)N[C@@H](C)C(=O)N[C@@H](CCC(N)=O)C(=O)N[C@@H](CCCCN)C(=O)N1CCC[C@H]1C(=O)N[C@@H](CCCCN)C(=O)N[C@@H](CCCCN)C(=O)N[C@H](C(=O)N[C@@H](CCCNC(=N)N)C(=O)N[C@@H](Cc1ccc(O)cc1)C(=O)N[C@@H](CO)C(N)=O)[C@@H](C)CC)C(C)C [0601GIP4802],87.3,,"−28, %",<794 @ −120 min,87.3
CC[C@H](C)[C@H](NC(=O)[C@H](CO)NC(=O)[C@H](Cc1ccc(O)cc1)NC(=O)[C@H](CC(=O)O)NC(=O)[C@H](CO)NC(=O)[C@@H](NC(=O)[C@H](Cc1ccccc1)NC(=O)[C@@H](NC(=O)CNC(=O)[C@H](CCC(=O)O)NC(=O)[C@@H](C)NC(=O)[C@@H](N)Cc1ccc(O)cc1)[C@@H](C)O)[C@@H](C)CC)C(=O)N[C@@H](C)C(=O)N[C@@H](CCSC)C(=O)N[C@@H](CC(=O)O)C(=O)N[C@@H](CCCCN)C(=O)N[C@H](C(=O)N[C@@H](Cc1c[nH]cn1)C(=O)N[C@@H](CCC(N)=O)C(=O)N[C@@H](CCC(N)=O)C(=O)N[C@@H](CC(=O)O)C(=O)N[C@@H](Cc1ccccc1)C(=O)N[C@H](C(=O)N[C@@H](CC(N)=O)C(=O)N[C@@H](Cc1c[nH]c2ccccc12)C(=O)N[C@@H](CC(C)C)C(=O)N[C@@H](CC(C)C)C(=O)N[C@@H](C)C(=O)N[C@@H](CCC(N)=O)C(=O)N[C@@H](CCCCN)C(=O)N1CCC[C@H]1C(=O)N[C@@H](C)C(=O)N[C@@H](CCCCN)C(=O)N[C@H](C(=O)N[C@@H](CCCNC(=N)N)C(=O)N[C@@H](Cc1ccc(O)cc1)C(=O)N[C@@H](CO)C(N)=O)[C@@H](C)CC)C(C)C)[C@@H](C)CC [Compound 0601GIP4815],89,,"−23, %",<794@ −120 min,89
CC[C@H](C)[C@H](NC(=O)[C@H](CO)NC(=O)[C@H](Cc1ccc(O)cc1)NC(=O)[C@H](CC(=O)O)NC(=O)[C@H](CO)NC(=O)[C@@H](NC(=O)[C@H](Cc1ccccc1)NC(=O)[C@@H](NC(=O)CNC(=O)[C@H](CCC(=O)O)NC(=O)[C@@H](C)NC(=O)[C@@H](N)Cc1ccc(O)cc1)[C@@H](C)O)[C@@H](C)CC)C(=O)N[C@@H](C)C(=O)N[C@@H](CCSC)C(=O)N[C@@H](CC(=O)O)C(=O)N[C@@H](CCCCN)C(=O)N[C@H](C(=O)N[C@@H](Cc1c[nH]cn1)C(=O)N[C@@H](CCC(N)=O)C(=O)N[C@@H](CCC(N)=O)C(=O)N[C@@H](CC(=O)O)C(=O)N[C@@H](Cc1ccccc1)C(=O)N[C@H](C(=O)N[C@@H](CC(N)=O)C(=O)N[C@@H](Cc1c[nH]c2ccccc12)C(=O)N[C@@H](CC(C)C)C(=O)N[C@@H](CC(C)C)C(=O)N[C@@H](C)C(=O)N[C@@H](CCC(N)=O)C(=O)N[C@@H](CCCCN)C(=O)N1CCC[C@H]1C(=O)N[C@@H](CCCCN)C(=O)NCC(=O)N[C@@H](CCCCN)C(=O)NCC(=O)N[C@@H](CCCCN)C(=O)N[C@@H](CO)C(N)=O)C(C)C)[C@@H](C)CC [0601GIP4700],86.6,"−6%, AUC240","−21, 30%",,
CC[C@H](C)[C@H](NC(=O)[C@H](CO)NC(=O)[C@H](Cc1ccc(O)cc1)NC(=O)[C@H](CC(=O)O)NC(=O)[C@H](CO)NC(=O)[C@@H](NC(=O)[C@H](Cc1ccccc1)NC(=O)[C@@H](NC(=O)CNC(=O)[C@H](CCC(=O)O)NC(=O)[C@@H](C)NC(=O)[C@@H](N)Cc1ccc(O)cc1)[C@@H](C)O)[C@@H](C)CC)C(=O)N[C@@H](C)C(=O)N[C@@H](CCSC)C(=O)N[C@@H](CC(=O)O)C(=O)N[C@@H](CCCCN)C(=O)N[C@H](C(=O)N[C@@H](Cc1c[nH]cn1)C(=O)N[C@@H](CCC(N)=O)C(=O)N[C@@H](CCC(N)=O)C(=O)N[C@@H](CC(=O)O)C(=O)N[C@@H](Cc1ccccc1)C(=O)N[C@H](C(=O)N[C@@H](CC(N)=O)C(=O)N[C@@H](Cc1c[nH]c2ccccc12)C(=O)N[C@@H](CC(C)C)C(=O)N[C@@H](CC(C)C)C(=O)N[C@@H](C)C(=O)N[C@@H](CCC(N)=O)C(=O)N[C@@H](CCCCN)C(=O)N1CCC[C@H]1C(=O)N[C@@H](CCC(N)=O)C(=O)N[C@@H](CCCCN)C(=O)N[C@H](C(=O)N[C@@H](CCCNC(=N)N)C(=O)N[C@@H](Cc1ccc(O)cc1)C(=O)N[C@@H](CO)C(N)=O)[C@@H](C)CC)C(C)C)[C@@H](C)CC [Compound 0601GIP4853],,,"−25, %",<794@ −120 min,91
CC[C@H](C)[C@H](NC(=O)[C@H](CO)NC(=O)[C@H](Cc1ccc(O)cc1)NC(=O)[C@H](CC(=O)O)NC(=O)[C@H](CO)NC(=O)[C@@H](NC(=O)[C@H](Cc1ccccc1)NC(=O)[C@@H](NC(=O)CNC(=O)[C@H](CCC(=O)O)NC(=O)[C@@H](C)NC(=O)[C@@H](N)Cc1ccc(O)cc1)[C@@H](C)O)[C@@H](C)CC)C(=O)N[C@@H](C)C(=O)N[C@@H](CCSC)C(=O)N[C@@H](CC(=O)O)C(=O)N[C@@H](CCCCN)C(=O)N[C@H](C(=O)N[C@@H](Cc1c[nH]cn1)C(=O)N[C@@H](CCC(N)=O)C(=O)N[C@@H](CCC(N)=O)C(=O)N[C@@H](CC(=O)O)C(=O)N[C@@H](Cc1ccccc1)C(=O)N[C@H](C(=O)N[C@@H](CC(N)=O)C(=O)N[C@@H](Cc1c[nH]c2ccccc12)C(=O)N[C@@H](CC(C)C)C(=O)N[C@@H](CC(C)C)C(=O)N[C@@H](C)C(=O)N[C@@H](CCC(N)=O)C(=O)N[C@@H](CCCCN)C(=O)N1CCC[C@H]1C(=O)N[C@@H](CCCCN)C(=O)N[C@@H](CCC(N)=O)C(=O)N[C@H](C(=O)N[C@@H](CCCNC(=N)N)C(=O)N[C@@H](Cc1ccc(O)cc1)C(=O)N[C@@H](CO)C(N)=O)[C@@H](C)CC)C(C)C)[C@@H](C)CC [Compound 0601GIP4854],,,"−14, %",<794@ −120 min,93.5
